# Experimental data reported in paper PMC6718988, “Bioactivity and Bactericidal Mechanism of Histidine-Rich β-Hairpin Peptide Against Gram-Negative Bacteria” (International Journal of Molecular Sciences, 2019).
# Where a SMILES comes first, the peptide text is derived from it. [ ]: non-standard residue; d: D form.
# Assays:
# [1] = RP-HPLC retention time as measure of hydrophobicity; type: physicochemical; details: analytical Kromasil C18 column 4.6 mm × 250 mm, 5.0 μm, acetonitrile, flow 1.0 mL/min, used as measure of hydrophobicity
# Protocol: The hydrophobicities of the peptides in solution were reliably mirrored by their high-performance liquid chromatography (HPLC)retention times. The retention times for peptide HI2, HW2, HV2, HF2, and PG-1 were 11.13, 10.55, 12.20, 18.06 and 12.56 min, respectively, indicating the following hydrophobic order: HF2 > PG-1 > HV2 > HI2 > HW2(Table 1).
# The designed peptides were synthesized and purified by GL Biochem (Shanghai, China). Acetonitrile was used on an analytical Kromasil C18 column (4.6 mm × 250 mm, 5.0 μm, LC 3000, Beijing, China), and the purity of the peptides was determined to be greater than 95% via reversed-phase high-performance liquid chromatography (RP-HPLC) with a flow rate of 1.0 mL/min. The experimental molecular weights of the peptides were evaluated via ESI-MS analysis, and these values were very close to the calculated masses. Next, the peptides were dissolved in deionized water at a concentration of 2.56 mM, and the peptide solutions were stored at −20 °C.
# [2] = system: E. coli ATCC25922; test: microbe, parasite or virus in culture
# Protocol: (§1) The minimum inhibitory concentration (MIC) was measured using a broth microdilution method to determine the in vitro antimicrobial activity of the peptides. Bacteria were inoculated into MHB and incubated overnight at 37 °C until the bacteria were in log phase growth. Next, we corrected the bacterial concentration to approximately 1 × 10^5 CFU/mL using MHB. The peptides were added to 96-well plates containing 0.01% acetic acid and 0.2% bovine serum albumin at final concentrations ranging from 0.25 to 128 μM. After incubation at 37 °C for 24 h, the absorbance was measured at 492 nm using a microplate reader (Tecan GENios F129004, Tecan, Austria). Broth containing microbes and […] were used as positive and negative controls, respectively. The lowest peptide concentration with no increase in absorbance compared to that of the negative control was defined as the MIC. The experiments were independently performed three times.
# [3] = system: E. coli K88; test: microbe, parasite or virus in culture; details: E. coli K88; MHB, about 1 × 10^5 CFU/mL, 37 °C, 24 h; three independent experiments
# Protocol: as §1
# [4] = system: E. coli K99; test: microbe, parasite or virus in culture; details: E. coli K99; MHB, about 1 × 10^5 CFU/mL, 37 °C, 24 h; three independent experiments
# Protocol: as §1
# [5] = system: E. coli UB1005; test: microbe, parasite or virus in culture
# Protocol: as §1
# [6] = system: P. aeruginosa ATCC27853; test: microbe, parasite or virus in culture
# Protocol: as §1
# [7] = system: S. aureus ATCC29213; test: microbe, parasite or virus in culture
# Protocol: as §1
# [8] = system: S. epidermidis ATCC12228; test: microbe, parasite or virus in culture
# Protocol: as §1
# [9] = system: S. pullorum C7913; test: microbe, parasite or virus in culture
# Protocol: as §1
# [10] = system: methicillin-resistant S. aureus ATCC43300; test: microbe, parasite or virus in culture
# Protocol: as §1
# [11] = system: Gram-negative bacteria; test: MICs against Gram-negative strains (geometric mean, range); type: cell-based; details: Gram-negative strains; 256 μM used where no activity at 128 μM
# Protocol: as §1
# [12] = system: Gram-positive and Gram-negative bacteria; details: all strains; 256 μM used where no activity at 128 μM
# Protocol: as §1
# [13] = system: Gram-positive bacteria; details: Gram-positive strains; 256 μM used where no activity at 128 μM
# Protocol: as §1
# [14] = LPS binding assay (BODIPY-TR-cadaverine displacement); design: species or system E. coli; details: peptide concentration higher than 4 μM; 50 μg/mL LPS, 5 μg/mL BODIPY-TR cadaverine, Tris 50 mM pH 7.4; 100% = 10 μg/mL polymyxin B
# Protocol: The abilities of the antimicrobial peptides to bind LPS were determined using the fluorescent dye BODIPY-TR-cadaverine (BC) substitution method. LPS (50 μg/mL) from E. coli O111:B4 was incubated with BC (5 μg/mL) in Tris buffer (50 mm, pH 7.4) for 4 h. Next, 50 μL of various concentrations of peptides (final concentration of 1–64 μM) and 50 μL of LPS-BC mixture were added to 96-well plates, and the fluorescence was measured using a fluorescence spectrophotometer (Infinite 200 pro, Tecan, China) at an excitation wavelength of 580 nm and an emission wavelength of 620 nm. Each test was performed three times. The values were converted to %∆F (AU) using the following equation:%ΔF (AU) = [(Fobs − F0)/(F100 − F0)] × 100 where Fobs is the fluorescence value measured in the presence of the peptide, F0 is the initial fluorescence of LPS with BC without the addition of peptides, F100 is the fluorescence value produced by adding 10 μg/mL polymyxin B.
# [15] = system: human red blood cells (hRBCs); test: Hemolytic activity; details: 1 h, OD 570 nm; for hemolysis rate: at the highest concentration (128 μM), 1% hRBC in PBS, 37 °C, 0.1% Triton X-100 positive control; for MHC, minimum hemolytic concentration: concentration causing 5% hemolysis of hRBC, 1% hRBC in PBS pH 7.4, 37 °C, repeated three times
# Protocol: Briefly, collected human red blood cells (hRBCs) were washed three times with PBS (pH 7.4) and diluted to 1% in PBS. Next, equal volumes of blood cells were mixed with different peptide concentrations in 96-well plates followed by incubated at 37 °C for 1 h. The mixtures were centrifuged (1000 g, 5 min), and the supernatants were transferred to 96-well plates to measure the optical density (OD) at 570 nm. Untreated blood cells were used as negative controls, and 0.1% Triton X-100-treated blood cells were used as positive controls. The minimum peptide concentration corresponding to 5% hemolytic activity was defined as the minimal hemolytic concentration (MHC). These assays were independently repeated three times.
# [16] = system: E. coli ATCC25922; test: Salt sensitivity assay (MIC in presence of physiological salts); type: cell-based; design: unit not given here
# Protocol: Bacteria were inoculated into MHB and incubated overnight at 37 °C until the bacteria were in log phase growth. Next, we corrected the bacterial concentration to approximately 1 × 10^5 CFU/mL using MHB. […] After incubation at 37 °C for 24 h, the absorbance was measured at 492 nm using a microplate reader (Tecan GENios F129004, Tecan, Austria). Broth containing microbes and […] were used as positive and negative controls, respectively. The lowest peptide concentration with no increase in absorbance compared to that of the negative control was defined as the MIC. The experiments were independently performed three times. The effects of salt ions on the antibacterial activities of the antimicrobial peptides were evaluated. Different salt ion concentrations were added to BSA peptide dilutions, and the next steps followed the MIC measurement method. […] These tests were independently repeated three times.
# [17] = system: E. coli ATCC25922; test: Swimming motility assay; type: cell-based; details: E. coli ATCC25922, 0.3% agar, 1–8 μM peptide, 37 °C, 20 h; versus untreated control
# Protocol: The cell motility assay was performed on LB medium containing 0.3% agar. The peptides were added to 10 mL of medium at final concentrations of 1–8 μM. After mixing well, the mixtures were poured into 6-well plates and dried for 2 h. Subsequently, an overnight culture of E. coli ATCC 25922 was inoculated in the center of the movement plate. After incubation at 37 °C for 20 h, images were taken using a FluoroChemQ system (Cell biosciences, San Jose, CA, USA). The experiment was independently repeated three times.
# [18] = system: E. coli ATCC25922; test: SEM characterization of cell morphology; type: cell-based; details: E. coli ATCC25922, 1 × MIC (HV2 8 μM, PG-1 4 μM), 1 h
# Protocol: For the SEM sample preparation, E. coli ATCC25922 cells were cultured at 37 °C to mid-log phase in MH broth with constant shaking at 220 rpm, centrifuged at 1000 g and then adjusted to an OD600 of 0.1–0.2 in PBS. […] Bacteria incubated with PBS served as controls. After the incubation, the mixture was centrifuged at 5000 g for 5 min, and the collected bacteria were washed three times with PBS. Approximately 2.5% (w/v) glutaraldehyde was added for fixation at 4 °C overnight, followed by washing three times with PBS. The samples were dehydrated with 50%, 70%, 90%, 100% ethanol for 10 min. A mixture of ethanol and tert-butanol was added to the dried bacterial cells for 30 min, and then t-butanol was added for 1 h. Finally, the samples were dehydrated and coated with liquid CO2 in a critical point dryer and then observed using a Hitachi S-4800 SEM (Hitachi, Tokyo, Japan).
molecule,measurement,setting,value
N=C(N)NCCC[C@H](NC(=O)[C@H](CCCNC(=N)N)NC(=O)[C@H](Cc1c[nH]c2ccccc12)NC(=O)[C@H](Cc1c[nH]cn1)NC(=O)[C@H](Cc1c[nH]c2ccccc12)NC(=O)[C@H](Cc1c[nH]cn1)NC(=O)[C@H](Cc1c[nH]c2ccccc12)NC(=O)CNC(=O)[C@H]1CCCN1C(=O)[C@H](Cc1c[nH]c2ccccc12)NC(=O)[C@H](Cc1c[nH]cn1)NC(=O)[C@H](Cc1c[nH]c2ccccc12)NC(=O)[C@H](Cc1c[nH]cn1)NC(=O)[C@H](Cc1c[nH]c2ccccc12)NC(=O)[C@H](CCCNC(=N)N)NC(=O)[C@@H](N)CCCNC(=N)N)C(N)=O [HW2] (H-RRWHWHW[dP]GWHWHWRR-NH2; N-terminus assumed),Retention Time,[1],10.55 min
same,MIC,"[2]; ATCC25922, 24 h",4 µM
same,MIC,[3],4 µM
same,MIC,[4],4 µM
same,MIC,"[5]; UB1005, 24 h",2 µM
same,MIC,"[6]; ATCC27853, 24 h",8 µM
same,MIC,"[7]; ATCC29213, 24 h",4 µM
same,MIC,"[8]; ATCC12228, 24 h",2 µM
same,MIC,"[9]; C7913, 24 h",2 µM
same,MIC,"[10]; ATCC43300, 24 h",2 µM
same,"MBC (GM), geometric mean of MICs, Gram (−)",[11],3.56 µM
same,"MBC (GM), geometric mean of MICs, Gram (+,−)",[12],3.17 µM
same,"MBC (GM), geometric mean of MICs, Gram (+)",[13],2.52 µM
same,LPS binding ability relative to binding activity of polymyxin B,[14],higher than 60%
same,hemolysis rate,[15],15.58%
same,"MHC, minimum hemolytic concentration",[15],8 µM
"RGGRLCYCRRFCVCVGR-NH2 [PG-1, Protegrin-1, reference compound]",Retention Time,[1],12.56 min
same,MIC,"[2]; E. coli 25922, MHB, about 1 × 10^5 CFU/mL, 37 °C, 24 h, 0.25-128 μM, three independent experiments",4 µM
same,MIC,[3],2 µM
same,MIC,[4],2 µM
same,MIC,"[5]; E. coli UB1005, MHB, about 1 × 10^5 CFU/mL, 37 °C, 24 h, three independent experiments",2 µM
same,MIC,"[6]; P. auruginosa 27853, MHB, about 1 × 10^5 CFU/mL, 37 °C, 24 h, three independent experiments",8 µM
same,MIC,"[7]; S.aureus 29213, MHB, about 1 × 10^5 CFU/mL, 37 °C, 24 h, three independent experiments",2 µM
same,MIC,"[8]; S.epidermidis 12228, MHB, about 1 × 10^5 CFU/mL, 37 °C, 24 h, three independent experiments",8 µM
same,MIC,"[9]; S.pullorum C7913, MHB, about 1 × 10^5 CFU/mL, 37 °C, 24 h, three independent experiments",4 µM
same,MIC,"[10]; S.aureus 43300 (methicillin-resistant), MHB, about 1 × 10^5 CFU/mL, 37 °C, 24 h, three independent experiments",8 µM
same,"MBC (GM), geometric mean of MICs, Gram (−)",[11],3.17 µM
same,"MBC (GM), geometric mean of MICs, Gram (+,−)",[12],3.70 µM
same,"MBC (GM), geometric mean of MICs, Gram (+)",[13],5.04 µM
same,"MIC, FeCl3","[16]; E. coli ATCC25922, 4 μM FeCl3, unit not given",4
same,"MIC, NH4Cl","[16]; E. coli ATCC25922, 6 μM NH4Cl, unit not given",4
same,"MIC, ZnCl2","[16]; E. coli ATCC25922, 8 μM ZnCl2, unit not given",2
same,"MIC, MgCl2","[16]; E. coli ATCC25922, 1 mM MgCl2, unit not given",4
same,"MIC, KCl","[16]; E. coli ATCC25922, 4.5 mM KCl, unit not given",4
same,"MIC, NaCl","[16]; E. coli ATCC25922, 150 mM NaCl, unit not given",4
same,"MIC, Control","[16]; E. coli ATCC25922, absence of physiological salts, no unit printed in Table 3 (Table 2 MIC in μM)",4
same,swimming motility (diameter of swimming bacteria),[17],significantly reduced the diameter of the swimming bacteria
same,cell morphology by SEM,[18],rough and wrinkled
same,hemolysis rate,[15],48.13%
same,"MHC, minimum hemolytic concentration",[15],4 µM
